Test results published in PMC12154456, “Dual Mechanisms of the Diazepine-Benzimidazole Derivative, DAB-19, in Modulating Glutamatergic Neurotransmission” (International Journal of Molecular Sciences, 2025).

System: T1, voltage-gated sodium channels (native Nav channels, isoform not identified)
T1 construct: native channels in isolated hippocampal CA1 pyramidal neurons
Test: whole-cell patch clamp of TTX-sensitive sodium current, steps from -110 to -10 mV
Assay type: cell-based, Rattus norvegicus

## CC(C)(C)c1ccc(CN2C3=NCCCCN3c3ccccc32)cc1 [DAB-19]
  IC50: 8.3 ± 1.4 µM
